Reference: patent US20200197392A1, “COMPOSITIONS AND METHODS FOR TREATING TUBEROUS SCLEROSIS COMPLEX” (THE BRIGHAM & WOMEN'S HOSPITAL, INC., priority 2017, published 2020)
Where two headings read alike, the source gives them in different places.

Legend:
HCV29 cells [1] = details: 30 nM THZ1, 1 mM GSH
TSC-null cells [2] = experiment: Antioxidant rescue of THZ1-induced cell death (Trypan blue); assay type: cell-based; details: THZ1 30 nM, NAC 2 mM or GSH-MEE 2 mM, 48 hr
Text: (§1) FIGS. 8A-8G. Reduction of glutathione and increase in ROS in THZ1-treated TSC null cells. […] Arrow indicates glutathione. (n=3 samples) (FIG. 8B) Heat map showing the top 15 metabolites with greatest change in 621.101.TSC2− cells, with comparison to control and similarly-treated 621.101.TSC2-addback cells (n=3 samples). The scale is log 2 fold-change. […] Each data point represents the mean±SEM of three independent experiments (** p<0.01; *** p<0.001). […] Each data point represents the mean±SEM of three independent experiments (* p<0.05; ** p<0.01; *** p<0.001). […] Phase contrast images are at top. Cell death (%) is shown at bottom for these treatments as well as RAP (rapamycin 20 nM) and NAC (2 mM) for HCV.29.TSC1− and 621-101.TSC2− after 48 hours of treatment, measured by Trypan blue staining. Each data point represents the mean±SEM of three independent experiments (* p<0.05; ** p<0.01; *** p<0.001).
FIGS. 9A-9C. […] (n=3 samples,*** p<0.0005). […] Each data point represents the mean±SEM of three independent experiments (** p<0.01; *** p<0.001). (FIG. 9C) Cell death of MEF.TSC2− after 48 hours of treatment with indicated compounds was measured via Trypan blue staining assay. Each data point represents the mean±SEM of three independent experiments (* p<0.05; *** p<0.001). […]

TSC-null cells [3] = experiment: ROS levels in TSC-null cells; assay type: cell-based; details: NAC 2 mM + THZ1 30 nM, 48 hr
Text: as §1
As GSH is the major intracellular antioxidant […], reactive oxygen species (ROS) were next measured in these cells.
In addition, to examine whether glutathione depletion was the proximate cause of apoptosis in THZ1-treated TSC-null cells, cells were treated with GSH reduced ethyl ester (GSH-MEE), a membrane-permeable derivative of GSH.

[4] = system: tumors in a TSC mouse model; experiment: SY-1365 in a TSC mouse model; assay type: in vivo; details: tail vein injection 2×/week at 40 mg/kg for 4 weeks
Method: FIG. 16. Effect of SY-1365 on tumor volume in a TSC mouse model. SY-1365 was administered by tail vein injection 2×/week at 40 mg/kg for 4 weeks. Mice were then sacrificed and tumor assessment performed based on histology.

[5] = compared to THZ1; cited from earlier work
CDK7 [6] = molecular target: T1, CDK7 (Homo sapiens, UniProt P50613); details: read-out: cellular IC50; cited from earlier work
CDK7 [7] = molecular target: T1, CDK7; details: cited from earlier work
TSC1-HCV29 cells [8] = experiment: Cell cycle flow cytometry; assay type: cell-based, human; details: 30 nM, 24 h
TSC-addback cell lines = experiment: 96 well plate growth assay, TSC-addback cell lines; assay type: cell-based; details: 120 h, 6 cell line pairs, 5 days
Method: (§2) FIGS. 4A-4F. […] Cell number was calculated by measurement of dsDNA content using PicoGreen after 5 days in 96-well plate assays. Each data point represents the mean of 4 measurements. SEM are indicated. […] Apoptotic cell death was quantified by propidium iodide (PI) staining and flow cytometry, and is shown as the percentage of cells that were PI positive. Each data point represents the mean±SEM of three independent experiments. * p<0.05; ** p<0.01; *** p<0.001. […] Beta-actin serves as a loading control.
(§3) FIGS. 5A-5D. […] Beta-actin serves as a loading control. […] Apoptotic cells were quantified by propidium iodide (PI) staining and flow cytometry. Each data point represents the mean±SEM of three independent experiments. * p<0.05; ** p<0.01; *** p<0.001. […] Beta-actin serves as a loading control.

HCV29 cells [9] = experiment: ROS levels; assay type: cell-based, human; details: THZ1 30 nM, rapamycin 20 nM or both
[10] = system: kidney cystadenomas in Tsc2+/− A/J strain mice; details: THZ1 10 mg/kg IP twice a day 29 days; rapamycin 3 mg/kg 3 times per week
Text: FIGS. 12A-12F. […] (FIG. 12A) Experimental plan. Tsc2+/− A/J strain mice develop kidney cystadenomas with 100% penetrance by 4 months of age with progressive tumor development. […] (FIG. 12B) Number of tumors per kidney in each treatment group (n=kidney number). ***p<0.001. (FIG. 12C) Tumor volume per kidney, with each data point corresponding to one kidney. (FIG. 12D) Renal cystadenoma histology in the treated mice. Representative tumor images are shown for each treatment cohort. Cystadenomas and tumors each are shown at 100×. […] (FIG. 12E) Ki-67 staining to assess cell proliferation in kidney sections from the treated mice. All images are at 100× magnification. Percentage of tumor cells with nuclear immunoreactivity of Ki-67 was scored from six random fields per section. ***p<0.001.
FIGS. 13A-13B. […]
Tsc2+/− A/J strain mice develop kidney cystadenomas by 4 months of age, and provide a native in vivo model that is […] human TSC patients, and is driven by spontaneous second hit events that lead to complete loss of Tsc2 expression and mTORC1 activation (Auricchio et al., 2012; Guo and Kwiatkowski, 2013; Woodrum et al., 2010). […] Rapamycin was dramatically effective in reducing tumor volume by about 99%, as assessed semi-quantitatively on H&E-stained sections (FIG. 12C), similar to what we have seen previously (Guo and Kwiatkowski, 2013). […]

HCV29 cells [11] = experiment: Steady state metabolite analysis; assay type: cell-based, human; details: 30 nM, 48 h
HCV29 cells [12] = experiment: RNA-Seq gene expression, HCV29 vs TSC1-HCV29; assay type: cell-based, human; details: 30 nM THZ1-treated HCV29 vs THZ1-treated TSC1-HCV29, 6 hours
Text: However, the inventors focused on expression of all genes involved in the synthesis of reduced glutathione.

HCV29 cells [13] = experiment: Apoptosis by flow cytometry, propidium iodide and Annexin V; assay type: cell-based, human; details: 30 nM, 72 h
Text: (§4) FIGS. 2A-2B. […] Apoptosis was monitored by flow cytometry using FITC-Annexin V. Each data point represents the mean±SEM of three independent experiments. *** p<0.001 (FIG. 2B) Immunoblot analyses of caspase-3 and actin.

TSC1-HCV29 cells [14] = experiment: as above; assay type: cell-based, human; details: 30 nM, 72 h
Text: as §4

TSC-null cell lines = experiment: 96 well plate growth assay, TSC-null cell lines; assay type: cell-based; details: 120 h, 6 cell line pairs, 5 days
Method: as §2, §3

HCV29 xenograft tumors = HCV29 xenograft tumors in Foxn1nu mice (Example 1); assay type: in vivo; details: 10 mg/kg IP twice daily, 30 days
Text: FIG. 3. […] Treatment groups are indicated. […] Caliper measurements were used to calculate tumor volume.
HCV29 xenograft tumors were induced in immune-deficient Foxn1^nu mice by injection of 10^7 cells into each flank. […] Tumor size was monitored using calipers.

[15] = system: HCV.29-TSC1− xenograft tumors; experiment: HCV29-TSC1- xenograft model (Example 2); assay type: in vivo, mice; details: THZ1 10 mg/kg IP twice a day, rapamycin 3 mg/kg IP 3 days per week, or both
Method: FIGS. 14A-14D. […] Tumor size was measured every 3rd day using a digital caliper. […] This was quantified by counting four to six random fields per section. Scale bar=50 μm. **p<0.01, ***p<0.001. […] This was quantified by counting four to six random fields per section. Scale bar 50 μm. not shown (n=6) ***p<0.001. (FIG. 14D) Diagram showing glutathione synthetic pathway and ROS generation in TSC mutant cells. Top, TSC-deficient cells have hyperactive mTORC1, leading to increased ROS, NRF2 induction, and an increase in transcription of glutathione synthetic genes to yield more glutathione to buffer the increased ROS.
FIGS. 15A-15C. (FIG. 15A) Average body weight of TSC1-deficient HCV.29 xenograft mice in each treatment group. […] (n=4 tumors per group). ***p<0.001.
Tumor volumes were measured by calipers. […] Finally, in a cohort of xenograft mice, the treatments were discontinued and tumor growth was observed without intervention after the one month of treatment.

TSC null cells = experiment: NRF2, GCLC, GCLM, GSR protein expression; assay type: cell-based; details: 24 hours after THZ1 treatment
HCV29 cells [16] = experiment: Cell cycle flow cytometry; assay type: cell-based, human; details: 30 nM, 24 h
[17] = system: HCV29 cells (TSC1 null bladder cancer cell line); experiment: 96-well plate proliferation assay (PicoGreen dsDNA); assay type: cell-based; details: Homo sapiens, HCV-29, 96 h; HCV29, 4 days; read-out: IC50, inhibition of proliferation
Method: (§5) FIG. 1. THZ1 selectively targets TSC-deficient cells. […] Cell viability was assessed after 4 days of treatment using Quant-it PicoGreen dsDNA. Data is represented as mean±SD.
(§6) Multiple studies were performed that support these hypotheses. Most studies to date have been performed on two pairs of cell lines: (i) HCV29, a TSC1 null human bladder cancer cell line, and a corresponding TSC1 addback derivative (TSC1-HCV29), and (ii) 621-101, a TSC2 null angiomyolipoma cell line, and the TSC2 addback derivative […].

[18] = system: 621-101 cells (TSC2 null angiomyolipoma cell line); experiment: as above; assay type: cell-based; details: 96 h; 621-101, 4 days; read-out: IC50, inhibition of proliferation
Method: as §5, §6

T1 sequence (P50613 whole entry): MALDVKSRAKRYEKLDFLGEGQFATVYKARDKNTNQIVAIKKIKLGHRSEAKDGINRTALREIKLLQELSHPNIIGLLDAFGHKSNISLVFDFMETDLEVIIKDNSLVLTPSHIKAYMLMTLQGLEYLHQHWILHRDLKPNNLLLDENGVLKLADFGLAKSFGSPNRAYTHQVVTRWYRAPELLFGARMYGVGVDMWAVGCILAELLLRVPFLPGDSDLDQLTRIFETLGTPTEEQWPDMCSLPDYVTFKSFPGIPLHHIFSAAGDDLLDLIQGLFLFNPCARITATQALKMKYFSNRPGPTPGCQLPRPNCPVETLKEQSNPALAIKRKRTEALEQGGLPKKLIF
T1 sequence (P51946 whole entry partner): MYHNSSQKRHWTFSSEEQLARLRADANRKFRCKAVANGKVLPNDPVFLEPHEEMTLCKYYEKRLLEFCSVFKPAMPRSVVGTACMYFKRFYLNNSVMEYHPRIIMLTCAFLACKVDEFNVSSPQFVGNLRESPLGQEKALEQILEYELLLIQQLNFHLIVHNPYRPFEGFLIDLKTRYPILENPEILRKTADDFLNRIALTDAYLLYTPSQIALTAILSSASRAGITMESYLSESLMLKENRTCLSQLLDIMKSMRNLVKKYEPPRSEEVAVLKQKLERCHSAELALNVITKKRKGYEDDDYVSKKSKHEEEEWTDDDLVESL
T1 sequence (P51948 whole entry partner): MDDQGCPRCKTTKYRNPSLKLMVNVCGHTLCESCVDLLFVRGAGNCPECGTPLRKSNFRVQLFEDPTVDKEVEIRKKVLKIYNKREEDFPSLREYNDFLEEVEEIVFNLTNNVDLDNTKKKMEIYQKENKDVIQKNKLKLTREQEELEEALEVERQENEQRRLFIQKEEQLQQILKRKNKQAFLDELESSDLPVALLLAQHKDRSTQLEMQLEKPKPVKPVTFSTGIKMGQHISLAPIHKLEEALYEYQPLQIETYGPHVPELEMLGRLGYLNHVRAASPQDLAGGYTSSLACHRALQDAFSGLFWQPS

N[C@@H](CCC(=O)N[C@@H](CS)C(=O)NCC(=O)O)C(=O)O [GSH, glutathione]
THZ1-induced HCV29 cell death with GSH co-treatment (HCV29 cells [1]): markedly reduced

CCOC(=O)CNC(=O)[C@H](CS)NC(=O)CC[C@H](N)C(=O)O [GSH-MEE, GSH reduced ethyl ester]
cell death / viability of THZ1-treated TSC-null cells with co-treatment (TSC-null cells [2]): rescued the viability

CC(=O)N[C@@H](CS)C(=O)O [NAC, N-acetyl-cysteine]
cell death / viability of THZ1-treated TSC-null cells with co-treatment (TSC-null cells [2]): significantly reduced the cell death
ROS levels in THZ1 treated TSC-null cells with antioxidant (TSC-null cells [3]): restored ROS levels to near baseline

CN(C)C/C=C/C(=O)Nc1ccc(C(=O)N[C@@]2(C)CCC[C@@H](Nc3ncc(Cl)c(-c4c[nH]c5ccccc45)n3)C2)nc1 [SY-1365]
reduction in tumor volume (semi-quantitative, histology) [4]: 99%
pharmacokinetic properties [5]: improved pharmacokinetic properties compared to THZ1
IC50 (CDK7 [6]): ~20 nM
selectivity for CDK7 over other CDKs (e.g., CDK9) (CDK7 [7]): high selectivity for CDK7 over other CDKs
IC50 (CDK7 [7]; read-out: enzymatic IC50): ~22 nM

CN(C)C/C=C/C(=O)Nc1ccc(C(=O)Nc2cccc(Nc3ncc(Cl)c(-c4c[nH]c5ccccc45)n3)c2)cc1 [THZ1]
cells arrested in G2/M-phase (TSC1-HCV29 cells [8]): 5.5%
IC50 (TSC-addback cell lines; read-out: IC50 range, addback lines): 190 to 660 nM
IC50 (TSC-addback cell lines; read-out: median IC50, addback lines): 475 nM
ROS levels increase (HCV29 cells [9]): 2.5 fold
reduction of tumor volume (semi-quantitative, H&E sections) [10]: about 99%
Glutathione disulfide (GSS) levels reduced (HCV29 cells [11]): 65%
S-adenosyl-L-homocysteine reduction in levels (HCV29 cells [11]): 87%
glutathione (GSH) reduction in levels (HCV29 cells [11]): 78%
GCLC mRNA levels reduction (HCV29 cells [12]): 82%
GCLM mRNA levels reduction (HCV29 cells [12]): 68%
GSR mRNA levels reduction (HCV29 cells [12]): 86%
Annexin V+ cells (HCV29 cells [13]): 37%
Annexin V+ cells (TSC1-HCV29 cells [14]): 2%
IC50 (TSC-null cell lines; read-out: IC50 range, TSC-null cell lines): 16 to 39 nM
IC50 (TSC-null cell lines; read-out: median IC50, TSC-null cell lines): 26.5 nM
body weight and apparent toxicities (HCV29 xenograft tumors): did not affect body weight or cause other apparent toxicities
body weight and toxicity [15]: No effect on body weight or other evidence of toxicity
reduction in expression of each protein (NRF2, GCLC, GCLM, GSR) (TSC null cells): > 90%
cells arrested in G2/M-phase (HCV29 cells [16]): 21%
IC50 [17]: ~30 nM
IC50 [18]: ~30 nM

CO[C@H]1C[C@@H]2CC[C@@H](C)[C@@](O)(O2)C(=O)C(=O)N2CCCC[C@H]2C(=O)O[C@H]([C@H](C)C[C@@H]2CC[C@@H](O)[C@H](OC)C2)CC(=O)[C@H](C)/C=C(\C)[C@@H](O)[C@@H](OC)C(=O)[C@H](C)C[C@H](C)/C=C/C=C/C=C/1C [rapamycin]
reduction of tumor volume (semi-quantitative, H&E sections) [10]: about 99%
body weight and toxicity [15]: No effect on body weight or other evidence of toxicity
